Values of other authors in publication PMC11675001, “Monovalent and Divalent Designs of Copper Radiotheranostics Targeting Fibroblast Activation Protein in Cancer” (Cancers, 2024).

How the values were obtained:
[1] = ref European Journal of Nuclear Medicine and Molecular Imaging (2022): 1-11 [3]; Pharmaceuticals 16, no. 8 (2023): 1138 [4]
[2] = after 3 h; ref European Journal of Nuclear Medicine and Molecular Imaging (2022): 1-11 [3]; Pharmaceuticals 16, no. 8 (2023): 1138 [4]

Partition coefficient (LogP) [1]: −3.57 | Stability [2]: > 95.3%
Structure (SMILES): CN(CCCN1CCN(C(=O)CN2CCN(CC(=O)[O-])CCN(CC(=O)[O-])CCN(CC(=O)[O-])CC2)CC1)c1ccc2nccc(C(=O)NCC(=O)N3CC(F)(F)C[C@H]3C#N)c2c1.[68Ga+3] [[68Ga]Ga-FAPI-46]
